Measurements as given in patent US20210018504A1, “SHON AS A PROGNOSTIC BIOMARKER FOR CANCER AND AS A PREDICTOR OF RESPONSE TO ENDOCRINE THERAPY” (priority 2012, published 2021).

Columns and labels:
breast cancer = details: adjuvant therapy for 5 years, cited from earlier work
MCF7-SHON cells = assay: Total cell number assays in MCF7-Vec and MCF7-SHON stable cells; format: cell-based, human
Protocol: (§1) FIGS. 12A-C. SHON is an estrogen inducible gene. (A) RT-PCR. MCF-7 cells were cultured for 24 h in RPMI media containing 10% foetal bovine serum (FBS). Prior to 17β-estradiol (E2) treatment, cells were further cultured for 72 h in phenol red-free medium containing 10% charcoal stripped-FBS. Cells were then treated with 10 nM of E2. Total RNAs were isolated from the cells at indicated time points and the expression of SHON mRNA was determined by One-Step RT-PCR kits (Qiagen) with the SHON-specific primer pairs of SHONc5 and SHONc3 (Table 1). β-ACTIN was included as the RNA input control using forward primer: 5′-ATCATATCGCCGCGCTCG-3′ (SEQ ID NO: 9) and reverse primer: 5′-CGCTCGGTGAGGATCTTCA-3′ (SEQ ID NO: 10). The bp sizes of amplified products are shown on the right. (B) MCF7-Vec and MCF7-SHON cells were treated with DMSO vehicle (−) or 10 nM of E2 (+) for 72 h in phenol red-free medium containing 10% charcoal stripped-FBS. The expression of SHON in whole cell lysates was determined by Western blot with the rabbit polyclonal SHONα antibody. Molecular weights of detected protein bands are shown on the right. (C) Total cell number assays. MCF7-Vec and MCF7-SHON stable cells were seeded in phenol-red free RPMI media with 10% charcoal stripped FBS. […] The cell number was determined at the days indicated. […] The cell number was determined at the indicated days. **, P<0.01; ***, P<0.001. […]

SHON = SHON expression in MCF-7 cells after 17β-estradiol treatment (RT-PCR, Western blot); format: cell-based, human
Protocol: as §1

CC/C(=C(\c1ccccc1)c1ccc(OCCN(C)C)cc1)c1ccccc1 [tamoxifen]
absolute reduction in mortality (breast cancer; at 15 years): 9.2% | reduction in the annual breast cancer death rate (breast cancer): 34%

C[C@]12CC[C@@H]3c4ccc(O)cc4C[C@@H](CCCCCCCCC[S+]([O-])CCCC(F)(F)C(F)(F)F)[C@H]3[C@@H]1CC[C@@H]2O (stereo partly drawn) [ICI 182780]
SHON-stimulated growth (MCF7-SHON cells; 100 nM ICI, ER+ MCF-7 cells): partially attenuated SHON-stimulated growth advantages

C[C@]12CC[C@@H]3c4ccc(O)cc4CC[C@H]3[C@@H]1CC[C@@H]2O [E2, 17β-estradiol]
SHON mRNA levels (SHON; 10 nM E2, MCF-7 cells, RT-PCR): increase in SHON mRNA levels in a time dependent manner | SHON protein expression (SHON; 10 nM E2 for 72 h, MCF7-Vec and MCF7-SHON cells, Western blot): increased | cell number (MCF7-SHON cells; 10 nM E2, MCF7-SHON compared with MCF-Vec cells): synergistic increase in cell number
